Values quoted from earlier work as cited in patent US20080139514A1, “DIPHOSPHONIC ACID PHARMACEUTICAL COMPOSITIONS” (priority 2006, published 2008).
Where two headings read alike, the source gives them in different places.

Legend:
[1] = stored at room temperature

Solubility in organic solvents (organic solvents) | Solubility in water | Solubility in water (monosodium monohydrate) | Stability on storage [1] | SMILES
practically insoluble | freely soluble |  |  | CCCCCN(C)CCC(O)(P(=O)(O)O)P(=O)(O)O [Ibandronic acid, 3-(N-methyl-N-pentyl) amino-1-hydroxypropane-1,1-diphosphonic acid]
 |  | poor | quite stable | CCCCCN(C)CCC(O)(P(=O)(O)O)P(=O)(O)O [ibandronate sodium, ibandronate monosodium monohydrate]
